This is an account of results in ChEMBL document CHEMBL1139416, “Synthesis of a C-glucosylated cyclopropylamide and evaluation as a glycogen phosphorylase inhibitor” (Bioorg Med Chem Lett, 2008).

For assay [1], the species on record is Oryctolagus cuniculus. The assay can be described thus: Inhibition of rabbit muscle glycogen phosphorylase b at 625 uM.
The species entered for assay [2] is Oryctolagus cuniculus. Nature of the assay: Inhibition of rabbit muscle glycogen phosphorylase b at 2.5 mM.

Active and inactive are the calls of the source. No cut-off for these calls is given here.

`O=C(NC1([C@@H]2O[C@H](CO)[C@@H](O)[C@H](O)[C@H]2O)CC1)c1ccccc1`: the outcome in the assay filed under Oryctolagus cuniculus [1] was inactive. The compound also had an inhibition in the assay filed under Oryctolagus cuniculus [2] of 16%.
